Columns and labels:
HSL = biological target: T1, HSL (Mus musculus, UniProt P54310); test: Competitive ABPP of HSL in rosiglitazone-differentiated 3T3-10T1/2 adipocyte proteome; assay type: biochemical
T1 construct: ABPP analysis of HSL from a rosiglitazone-differentiated 3T3-10T1/2 adipocyte proteome; endogenous in cells; host or cells: rosiglitazone-differentiated 3T3-10T1/2 adipocytes
T1 sequence (P54310 1-759): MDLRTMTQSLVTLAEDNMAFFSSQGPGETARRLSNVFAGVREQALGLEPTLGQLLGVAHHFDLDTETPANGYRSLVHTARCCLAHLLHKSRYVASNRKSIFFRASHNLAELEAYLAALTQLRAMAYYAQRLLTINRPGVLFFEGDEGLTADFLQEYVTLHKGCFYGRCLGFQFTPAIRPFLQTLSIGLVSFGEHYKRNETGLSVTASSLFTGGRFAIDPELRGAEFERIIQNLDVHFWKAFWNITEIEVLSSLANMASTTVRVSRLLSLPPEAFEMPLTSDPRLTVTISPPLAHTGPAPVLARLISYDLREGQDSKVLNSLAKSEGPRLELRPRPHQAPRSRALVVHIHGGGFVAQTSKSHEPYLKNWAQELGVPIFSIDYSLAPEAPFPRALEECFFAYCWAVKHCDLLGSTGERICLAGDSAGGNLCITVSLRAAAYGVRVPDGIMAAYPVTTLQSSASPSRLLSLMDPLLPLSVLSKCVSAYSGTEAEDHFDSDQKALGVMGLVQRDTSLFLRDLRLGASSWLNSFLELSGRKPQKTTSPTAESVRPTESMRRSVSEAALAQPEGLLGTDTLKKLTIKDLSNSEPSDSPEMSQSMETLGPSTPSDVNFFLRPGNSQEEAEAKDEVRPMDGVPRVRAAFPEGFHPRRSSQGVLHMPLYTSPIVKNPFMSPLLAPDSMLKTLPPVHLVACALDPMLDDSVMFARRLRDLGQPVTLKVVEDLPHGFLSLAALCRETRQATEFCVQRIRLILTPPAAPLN
Procedure: (§1) For ABPP experiments, cell lysate and tissue proteomes were treated with 1 μM FP-rhodamine for 30 min at room temperature (50 μL total reaction volume) as described previously (Nomura et al., 2010). Reactions were quenched with one volume of standard 4×SDS/PAGE loading buffer (reducing), separated by SDS/PAGE (10% acrylamide), and visualized in-gel with a Hitachi FMBio IIe flatbed fluorescence scanner (MiraiBio). Inhibitors were preincubated prior (30 min or 4 h at 37° C. in vitro or in situ, respectively) to the addition of FP-rhodamine.

[1] = test system: MAGE levels in PC3 and DU145 cells; test: Lipid (MAGE) measurements in cancer cells; assay type: cell-based, human; settings: for MAGE levels: 10 μM, 4 h in situ
Procedure: (§2) Inhibitors were dissolved in DMSO and diluted into media or buffer prior to cell or proteome treatment, respectively. For in vitro treatment, final DMSO concentration was 4%. For in situ treatments of cells for ABPP, lipid measurements, migration, cell-survival, and invasion assays, 2×10^6 cells were seeded in 6 cm dishes (˜100% confluency) 24 h prior to inhibitor pre-treatment (in DMSO at 0.1% final concentration) in serum-free media (3 mL) for the designated time before harvesting cells for ABPP or lipid measurements or before the initiation of migration, cell-survival, and invasion assays.
Lipid measurements were performed in cancer cells as previously described (Chiang et al., 2006). Briefly, frozen cell pellets from cells harvested after 4 h serum starvation were extracted in 2:1:1 chloroform:methanol:Tris buffer pH 8.0 by dounce homogenization with 10 nmol of internal standard C12 MAGE. The organic layer was removed, dried under N2, and resuspended in 120 μL of chloroform, and 30 μL was injected into an Agilent 1100-MSD LC-MS. MAGE levels were quantified by measuring the area under the peak and were normalized to the C12 MAGE internal standard.

PC3 and DU145 cells [2] = test: Invasion assay (Matrigel chambers); assay type: cell-based, human; settings: for PC3 and DU145 invasion: 10 μM, 4 h in situ
Procedure: as §2
(§3) Cell migration, cell survival, and invasion studies were performed as previously described (Nomura et al., 2010). Briefly, migration assays were performed in Transwell chambers (Corning) with 8 μm pore-sized membranes coated with 10 μg/mL collagen at 37° C. for LNCaP (24 h), PC3 (4 h) and DU145 cells (24 h), respectively. Cell survival assays were performed using the Cell Proliferation Reagent WST-1 (Roche) Invasion assays were conducted using the BD Matrigel Invasion Chambers per the manufacturer's protocol. Inhibitors were preincubated for the stated duration before seeding cells into migration, cell-survival, or invasion chambers. Prior to seeding the cells in these chambers, cells were serum-starved for 4 h. Inhibitors were also present during the migration, cell-survival, and invasion assays.

PC3 and DU145 cells [3] = test: Serum-free cell survival assay (WST-1); assay type: cell-based, human; settings: for PC3 and DU145 serum-free cell survival: 10 μM, 4 h in situ
Procedure: as §2, §3

KIAA1363 = biological target: T2, KIAA1363 (Homo sapiens, UniProt Q6PIU2); test: Competitive ABPP of tumors explanted from treated mice; assay type: in vivo, mouse; set-up: PC3 cancer cells, which have high endogenous KIAA1363 levels; endogenous in cells; host or cells: PC3 (2-acetyl MAGE assay also DU145 and SKOV3); settings: 80 mg/kg oral daily; tumors removed 4 hr after final dose (day 33)
T2 sequence (Q6PIU2 1-408): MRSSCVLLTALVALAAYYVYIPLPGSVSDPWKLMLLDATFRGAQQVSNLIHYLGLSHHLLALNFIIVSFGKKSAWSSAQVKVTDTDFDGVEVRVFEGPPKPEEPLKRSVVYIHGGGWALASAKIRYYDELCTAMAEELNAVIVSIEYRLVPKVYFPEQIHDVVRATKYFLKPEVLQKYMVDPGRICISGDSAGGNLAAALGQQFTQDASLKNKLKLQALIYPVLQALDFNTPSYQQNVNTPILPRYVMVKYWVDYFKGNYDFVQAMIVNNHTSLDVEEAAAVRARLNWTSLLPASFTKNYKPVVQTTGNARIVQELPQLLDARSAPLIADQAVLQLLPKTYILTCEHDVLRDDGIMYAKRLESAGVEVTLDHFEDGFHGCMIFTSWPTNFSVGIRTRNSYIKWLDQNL
Procedure: as §1
Human cancer xenografts were established by transplanting cancer cell lines ectopically into the flank of C.B17 SCID mice (Taconic Farms). Briefly, cells were washed two times with PBS, trypsinized, and harvested in serum-containing medium. Next, the harvested cells were washed two times with serum-free medium and resuspended at a concentration of 2.0×10^4 cells/μL and 100 μL was injected. Growth of the tumors was measured every 3 days with calipers. For chronic JW480 treatment studies, mice were treated with JW480 or vehicle once daily (at approximately the same time everyday) by oral gavage in PEG300 (4 μL/g mouse). The treatments were initiated immediately after ectopic injection of cancer cells.

SMILES | Cross-reactivity with HSL (HSL) | MAGE levels [1] | PC3 and DU145 invasion (PC3 and DU145 cells [2]) | PC3 and DU145 serum-free cell survival (PC3 and DU145 cells [3]) | MAGE lipids ([1]; 1 μM, 48 hr) | Invasion of PC3 cells (PC3 and DU145 cells [2]; 1 μM, 48 h in situ) | Serum-free cell survival of PC3 cells (PC3 and DU145 cells [3]; 1 μM, 48 h in situ) | KIAA1363 activity in explanted tumors (KIAA1363)
COc1ccc(CNC(=O)Oc2cccc3c2OC(C)(C)C3)cc1 [JW148, 2,2-dimethyl-2,3-dihydrobenzofuran-7-yl 4-methoxybenzylcarbamate] | cross-reactivity | lower MAGE levels | impair | impair |  |  |  | 
CC(C)c1ccccc1OC(=O)NCCc1ccc2ccccc2c1 [JW480, 2-isopropylphenyl (2-(naphthalen-2-yl)ethyl)carbamate] | negligible cross-reactivity | lower MAGE levels | impair | impair | significant reductions | reduced | reduced | completely ablated
